Experimental data taken from patent publication US9828338B2, “Carbamate derivatives of lactam based N-acylethanolamine acid amidase (NAAA) inhibitors” (The Regents of the University of California, priority 2013, dated 2017).
pIC50: −log10 of the molar value. “Also recorded” adds a separate entry of the source. Read-outs that look alike come from different tables or passages of the source.

Columns and labels:
Rat AC (r-AC) = target: T1, Rat AC (r-AC) (Rattus norvegicus, UniProt Q6P7S1); assay: Rat AC (r-AC) assay; format: biochemical; settings: for inhibition at 10 µM: read-out: r-AC UPLC/MS assay % inhib.
T1 construct: V5 (C); His (C); made in house; host or cells: HEK293 cells transfected with pEF6-rAC-V5/His, G418 selected; soluble lysosomal fraction
T1 sequence (Q6P7S1 21-394): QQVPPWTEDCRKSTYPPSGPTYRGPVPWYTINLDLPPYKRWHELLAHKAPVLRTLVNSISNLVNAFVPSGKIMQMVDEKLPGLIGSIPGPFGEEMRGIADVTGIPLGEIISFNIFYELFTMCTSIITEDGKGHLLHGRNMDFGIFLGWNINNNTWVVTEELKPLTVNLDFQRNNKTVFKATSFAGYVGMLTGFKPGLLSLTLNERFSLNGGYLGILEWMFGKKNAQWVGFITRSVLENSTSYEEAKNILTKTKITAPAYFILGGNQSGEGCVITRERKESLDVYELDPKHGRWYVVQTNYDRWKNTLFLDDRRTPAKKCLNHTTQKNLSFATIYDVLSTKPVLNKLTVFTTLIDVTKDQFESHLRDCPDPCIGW
Protocol: The selectivity of selected compounds versus Acid Ceramidase (AC) was determined.
Rat AC (r-AC) was cloned from a brain cDNA library using primers based on the sequence obtained from the National Center for Biotechnology Information (NCBI) database: 5′rAC (5′-[…]-3′) (SEQ ID NO:1) and 3′rAC (5′-[…]-3′) (SEQ ID NO:2). The PCR (High Fidelity PCR Master, Roche) product was subcloned into a pEF6-V5/His vector (Invitrogen) to construct a mammalian expression vector encoding V5/His-tagged rat AC. HEK293 cells were transfected with pEF6-rAC-V5/His using Super-Fect reagent (Qiagen) and screened with G418 (0.3 mg/mL). Cells were suspended in 20 mM Tris HCl (pH 7.5) containing 0.32M sucrose, sonicated and centrifuged at 800×g for 15 minutes at 4° C. The supernatants were centrifuged again at 12,000×g for 30 minutes at 4° C. The pellets were suspended in phosphate-buffered saline (PBS) and subjected to 2 freeze-thaw cycles at −80° C. The suspensions were centrifuged at 105,000×g for 1 hour at 4° C. The supernatants containing recombinant AC were kept at −80° C. until use. Protein concentration was measured using the bicinchoninic acid (BCA) assay (Pierce). Recombinant rat AC (50 μg) was preincubated with inhibitors (final DMSO concentration 1%) in assay buffer (100 mM sodium phosphate, 0.1% Nonidet P-40, 150 mM NaCl, 3 mM DTT, 100 mM sodium citrate, pH 4.5) for 30 minutes at 37° C. Reactions were started by the addition of 100 μM N-lauroyl ceramide (Nu-Chek Prep, Elysian, Minn.) and carried on for 30 minutes at 37° C. Reactions were stopped by addition of a mixture of chloroform/methanol (2:1, vol/vol) containing 1 nmol of heptadecanoic acid (HDA; NuChek Prep). The organic phases were collected, dried under N2, and analyzed by LC-MS in the negative-ion mode using […] (HDA) as internal standard (m/z=199 for lauric acid, m/z=269 for HDA). […]. The column temperature was 50° C. Electrospray ionization (ESI) was in the negative mode, capillary voltage as 4 kV, and fragmentor voltage was 100 V. N2 was used as drying gas at a flow rate of 13 L/min and a temperature of 350° C. Nebulizer pressure was set at 60 psi. We monitored [M-H]− in the selected-ion monitoring (SIM) mode using HDA as internal standard. Calibration curves were generated using commercial lauric acid (Nu-Chek Prep; m/z=199).

mice [1] = assay: Carrageenan-induced inflammation (paw edema, heat hyperalgesia); format: in vivo; settings: compound 5 3-30 mg/kg p.o.
mice [2] = assay: Carrageenan-induced lung inflammation; format: in vivo; settings: carrageenan 2%
Protocol: The chest was carefully opened and the pleural cavity was rinsed with 1 mL of saline solution containing heparin (5 U/mL). The exudate and washing solution were removed by aspiration and the total volume of the fluid was measured. Any exudate that was contaminated with blood was discarded. The amount of exudate was calculated by subtracting the volume of washing fluid injected from the total volume recovered.

mice [3] = assay: LPS-induced inflammation (lung); settings: for neutrophil migration/infiltration into lung tissue: 6 h and 24 h
Protocol: Mice were anesthetized with ketamine and xylazine (100 and 10 mg/kg, respectively), and were subjected to intranasal instillation of LPS (1 μg/μL) or vehicle (saline 0.9%); the volume used was 1 μL/g body weight. In order to avoid drawing, the weight of each animal was divided by three; therefore each mouse received the respective volume of LPS or vehicle. Ex: animal 1 (24 g) received 3 times an intranasal instillation of 8 μL of LPS solution or vehicle.
The bronchoalveolar lavage and lung samples were collected 6 h or 24 h after the induction of inflammation.

r-NAAA = target: T2, r-NAAA (Rattus norvegicus, UniProt Q5KTC7); assay: UPLC/MS r-NAAA assay; format: biochemical
T2 construct: Lysosomal NAAA protein preparation was obtained by homogenizing male Sprague-Dawley rat lungs; tissue Charles River (animals); host or cells: male Sprague-Dawley rat lung, soluble lysosomal fraction
T2 sequence (Q5KTC7 34-362): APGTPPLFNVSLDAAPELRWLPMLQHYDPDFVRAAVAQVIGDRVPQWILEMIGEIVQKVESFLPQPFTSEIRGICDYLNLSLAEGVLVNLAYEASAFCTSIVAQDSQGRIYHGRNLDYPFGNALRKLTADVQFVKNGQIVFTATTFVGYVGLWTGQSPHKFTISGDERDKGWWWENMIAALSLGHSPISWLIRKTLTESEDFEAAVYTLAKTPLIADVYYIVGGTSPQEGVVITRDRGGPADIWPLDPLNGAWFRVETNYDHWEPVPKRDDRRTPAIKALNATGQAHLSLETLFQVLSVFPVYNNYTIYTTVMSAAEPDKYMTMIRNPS

human NAAA = target: T3, human NAAA (Homo sapiens, UniProt Q02083); assay: Fluorogenic h-NAAA assay; format: biochemical
T3 construct: made in house; host or cells: HEK293 cells, stably transfected; soluble lysosomal fraction used as enzyme source
T3 sequence (Q02083 29-359): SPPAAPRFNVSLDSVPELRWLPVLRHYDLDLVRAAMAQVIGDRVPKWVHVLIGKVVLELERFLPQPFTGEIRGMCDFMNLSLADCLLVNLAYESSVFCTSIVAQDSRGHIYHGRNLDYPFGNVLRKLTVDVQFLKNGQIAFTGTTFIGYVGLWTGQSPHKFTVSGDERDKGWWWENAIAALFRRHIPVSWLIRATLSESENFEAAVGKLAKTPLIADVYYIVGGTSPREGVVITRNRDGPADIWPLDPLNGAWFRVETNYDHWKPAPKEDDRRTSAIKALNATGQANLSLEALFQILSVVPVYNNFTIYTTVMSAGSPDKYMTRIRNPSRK
Protocol: Hek293 cells stably transfected with the human NAAA coding sequence cloned from a human spleen cDNA library were used as enzyme source. Recombinant HEK-hNAAA pellets were resuspended in homogenizing buffer, and sonicated. Samples were centrifuged at 800×g for 15 min at 4° C. and the resultant supernatants were then ultracentrifuged at 12,000×g for 30 min at 4° C. The pellets were resuspended in PBS pH 7.4 on ice and subjected to a freeze/thaw cycle at −80° C. The suspension was finally centrifuged at 105,000×g for 1 h at 4° C. Protein concentration was measured and samples aliquoted and stored at −80° C. until use.
The assay was run in Optiplate 96-wells black plates, in a total reaction volume of 200 μL. NAAA protein preparation (4.0 μg) was pre-incubated for 10 min with various concentrations of test compounds or vehicle control (5% DMSO) in 100 mM citrate/phosphate buffer (pH 4.5) containing 3.0 mM DTT, 0.1% Triton X-100, 0.05% BSA, 150 mM NaCl. N-(4-methyl-2-oxo-chromen-7-yl)-hexadecanamide was used as a substrate (5.0 μM) and the reaction carried over for 30 min at 37° C. The samples were then read in a Perkin Elmer Envision plate reader using an excitation wavelength of 360 nm and emission 460 nm. IC50 values were calculated by non-linear regression analysis of log [concentration]/inhibition curves using GraphPad Prism 5 (GraphPad Software Inc., CA—USA) applying a standard slope curve fitting.

[4] = compound 5 30 mg/kg p.o., dexamethasone 0.5 mg/kg i.p.

**Q.** How did the pIC50 (Rat AC (r-AC); read-out: r-AC UPLC/MS assay IC50) turn out when O=C(N[C@H]1CNC1=O)OCCCCC1CCCCC1 [Example 5, 4-Cyclohexylbutyl-N-[(3S)-2-oxoazetidin-3-yl]-carbamate] was run?
**A.** 4.90

**Q.** What about the heat hyperalgesia (mice [1]) of the same molecule?
**A.** reduced; also recorded: markedly attenuated

**Q.** What about the paw edema (mice [1]) of the same molecule?
**A.** reduced; also recorded: markedly attenuated

**Q.** What about the “TNF-alpha concentration in pulmonary exudate” value (mice [2]; [4]) of the same molecule?
**A.** normalizes

**Q.** And the “number of leukocytes (neutrophils) in the pulmonary exudate (FACS)” value (mice [2]; [4])?
**A.** normalized

**Q.** And the “myeloperoxidase (MPO) activity in lung tissue” value (mice [2]; compound 5 0.1-30 mg/kg p.o., dexamethasone 0.5 mg/kg i.p.)?
**A.** normalizes; also recorded: dose-dependently normalized

**Q.** What about the “increase of TNF-α in the pulmonary exudate” value (mice [2]; compound 5 0.1-30 mg/kg po) of the same molecule?
**A.** dose-dependently normalized

**Q.** What about the “LPS induced increase of IL-6, TNF-α and MIP-2/CXCL2 in tissue and BAL” value (mice [3]; 30 mg/kg po, at 6 hr) of the same molecule?
**A.** significantly reduced

**Q.** What about the “neutrophil migration/infiltration into lung tissue” value (mice [3]; LPS, 30 mg/kg po, listed as Compound 5, 30 mg/kg) of the same molecule?
**A.** prevented

**Q.** And the “neutrophil migration/infiltration into lung tissue” value (mice [3]; LPS, 30 mg/kg po, listed as compound 5, 30 mg/kg)?
**A.** prevents

**Q.** What about the “production of cytokines/chemokines in BAL and lung tissue” value (mice [3]; LPS, compound 5 30 mg/kg p.o., 30 min) of the same molecule?
**A.** prevents

**Q.** C[C@@H]1NC(=O)[C@H]1NC(=O)OCCCCC1CCCCC1 [Example 72, 4-Cyclohexylbutyl-N-[(2S,3S)-2-methyl-4-oxo-azetidin-3-yl]-carbamate] was tested. Which pIC50 (r-NAAA) did it give?
**A.** 7.30

**Q.** And the inhibition at 10 µM (Rat AC (r-AC); @ 10 μM)?
**A.** 20%

**Q.** How did the pIC50 (r-NAAA) turn out when C[C@@H]1NC(=O)[C@H]1NC(=O)OCc1ccc(C2CCCCC2)cc1 [Example 74, (4-Cyclohexylphenyl)-methyl-N-[(2S,3S)-2-methyl-4-oxo-azetidin-3-yl]-carbamate] was run?
**A.** 7.34

**Q.** And the pIC50 (human NAAA)?
**A.** 6.97

**Q.** And the inhibition at 10 µM (Rat AC (r-AC))?
**A.** 20%
